pIC50: −log10 of the molar value.

Results on 25 molecules are retold here after patent publication US10172814B2, “Substituted pyridyl-cycloalkyl-carboxylic acids, compositions containing them and medical uses thereof” (BAYER PHARMA AKTIENGESELLSCHAFT, priority 2014, dated 2019).

The target of the assay is human PTGES (Homo sapiens (Human), UniProt O14684). As to the kind of experiment: Human PTGES biochemical enzyme inhibition assay (conversion of PGH2 to PGE2, TR-FRET). As to conditions: Enzymatic conversion of PGH2 to PGE2; read-out: Human PTGES IC50. In short, it runs like this:
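FLAG-tagged human PTGES from Hi-5 insect cells preincubated 15–20 min with compound in pH 7.2 phosphate buffer with 2.5 mM reduced glutathione; reaction started with 8 nM PGH2 final, stopped with SnCl2/KF.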
Background: Time-resolved FRET reads energy transfer from a long-lived donor to a nearby acceptor.

Sequence of human PTGES (O14684 whole entry): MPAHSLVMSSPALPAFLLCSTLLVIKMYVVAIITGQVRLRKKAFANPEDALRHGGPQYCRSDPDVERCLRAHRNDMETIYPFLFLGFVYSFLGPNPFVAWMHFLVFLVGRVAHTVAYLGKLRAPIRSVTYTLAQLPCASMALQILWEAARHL

As usually defined, the pIC50 is the negative decadic logarithm of the IC50, by convention in mol/L. `Cc1ncc(-c2ccc(C(C(=O)Nc3cccc(CC(C)C(=O)O)c3C)C3CCCC3)cc2)cc1Cl` (single isomer, unassigned; stereoisomer 1) [Example 83, 3-[3-({[4-(5-Chloro-6-methylpyridin-3-yl)phenyl](cyclopentyl)acetyl}amino)-2-methylphenyl]-2-methylpropanoic acid, Stereoisomer 1]: the pIC50 was 4.93.

Regarding `Cc1c(NC(=O)C(c2ccc(-c3cncc(C(F)(F)F)c3)c(F)c2)C2CCCC2)cccc1C(C)CC(=O)O` (single isomer, unassigned; stereoisomer 1) [Example 116, 3-{3-[(Cyclopentyl{3-fluoro-4-[5-(trifluoromethyl)pyridin-3-yl]phenyl}acetyl)amino]-2-methylphenyl}butanoic acid, Stereoisomer 1], the negative logarithm of the IC50 (pIC50) was 8.46.

Consider `Cc1ncc(-c2ccc(C(C(=O)Nc3cccc(C(C)CC(=O)O)c3C)C3CCCC3)cc2F)cc1Cl` (single isomer, unassigned; stereoisomer 1) [Example 121, 3-[3-({[4-(5-Chloro-6-methylpyridin-3-yl)-3-fluorophenyl](cyclopentyl)acetyl}amino)-2-methylphenyl]butanoic acid, Stereoisomer 1], for which the negative logarithm of the IC50 (pIC50) was 6.42.

Consider `Cc1c(NC(=O)C(c2ccc(-c3cncc(Cl)c3)c(F)c2)C2CCCC2)cccc1C(C)CC(=O)O` (single isomer, unassigned; stereoisomer 1) [Example 126, 3-[3-({[4-(5-Chloropyridin-3-yl)-3-fluorophenyl](cyclopentyl)acetyl}amino)-2-methylphenyl]butanoic acid, Stereoisomer 1], for which the negative logarithm of the IC50 (pIC50) is 6.19.

Regarding `Cc1c(NC(=O)C(c2ccc(-c3cncc(Cl)c3)cc2)C2CCC2)cccc1C(C)CC(=O)O` (single isomer, unassigned; stereoisomer 1) [Example 136], the pIC50 was 7.90.

As for `Cc1c(NC(=O)C(c2ccc(-c3cncc(C(F)(F)F)c3)c(F)c2)C2CCC2)cccc1C(C)CC(=O)O` (single isomer, unassigned; stereoisomer 1) [Example 147, 3-{3-[(Cyclobutyl{3-fluoro-4-[5-(trifluoromethyl)pyridin-3-yl]phenyl}acetyl)amino]-2-methylphenyl}butanoic acid, Stereoisomer 1], the pIC50 was 5.88.

On to `Cc1c(NC(=O)C(c2ccc(-c3cncc(Cl)c3)c(F)c2)C2CCC2)cccc1C(C)CC(=O)O` (single isomer, unassigned; stereoisomer 1) [Example 150, 3-[3-({[4-(5-Chloropyridin-3-yl)-3-fluorophenyl](cyclobutyl)acetyl}amino)-2-methylphenyl]butanoic acid, Stereoisomer 1], for which the pIC50 was 5.58.

Regarding `Cc1c(CC(C)C(=O)O)cccc1NC(=O)C(c1ccc(-c2cncc(C(F)(F)F)c2)cc1)C1CCCC1` (single isomer, unassigned; stereoisomer 2) [Example 70, 3-{3-[(Cyclopentyl{4-[5-(trifluoromethyl)pyridin-3-yl]phenyl}acetyl)amino]-2-methylphenyl}-2-methylpropanoic acid, Stereoisomer 2], the negative logarithm of the IC50 (pIC50) is 7.28.

Consider `Cc1ncc(-c2ccc(C(C(=O)Nc3cccc(CC(C)C(=O)O)c3C)C3CCCC3)cc2)cc1Cl` (single isomer, unassigned; stereoisomer 2) [Example 84, 3-[3-({[4-(5-Chloro-6-methylpyridin-3-yl)phenyl](cyclopentyl)acetyl}amino)-2-methylphenyl]-2-methylpropanoic acid, Stereoisomer 2], for which the pIC50 was 7.39.

Turning to `Cc1c(NC(=O)C(c2ccc(-c3cncc(C(F)(F)F)c3)c(F)c2)C2CCCC2)cccc1C(C)CC(=O)O` (single isomer, unassigned; stereoisomer 2) [Example 117, 3-{3-[(Cyclopentyl{3-fluoro-4-[5-(trifluoromethyl)pyridin-3-yl]phenyl}acetyl)amino]-2-methylphenyl}butanoic acid, Stereoisomer 2], the pIC50 is 7.81.

Turning to `Cc1ncc(-c2ccc(C(C(=O)Nc3cccc(C(C)CC(=O)O)c3C)C3CCCC3)cc2F)cc1Cl` (single isomer, unassigned; stereoisomer 2) [Example 122, 3-[3-({[4-(5-Chloro-6-methylpyridin-3-yl)-3-fluorophenyl](cyclopentyl)acetyl}amino)-2-methylphenyl]butanoic acid, Stereoisomer 2], the negative-log IC50 (pIC50) is 7.64.

`Cc1c(NC(=O)C(c2ccc(-c3cncc(Cl)c3)c(F)c2)C2CCCC2)cccc1C(C)CC(=O)O` (single isomer, unassigned; stereoisomer 2) [Example 127, 3-[3-({[4-(5-Chloropyridin-3-yl)-3-fluorophenyl](cyclopentyl)acetyl}amino)-2-methylphenyl]butanoic acid, Stereoisomer 2]: the pIC50 was 7.50.

In the case of `Cc1c(NC(=O)C(c2ccc(-c3cncc(Cl)c3)cc2)C2CCC2)cccc1C(C)CC(=O)O` (single isomer, unassigned; stereoisomer 2) [Example 137], the negative-log IC50 (pIC50) was 5.54.

On to `Cc1c(NC(=O)C(c2ccc(-c3cncc(C(F)(F)F)c3)c(F)c2)C2CCC2)cccc1C(C)CC(=O)O` (single isomer, unassigned; stereoisomer 2) [Example 148, 3-{3-[(Cyclobutyl{3-fluoro-4-[5-(trifluoromethyl)pyridin-3-yl]phenyl}acetyl)amino]-2-methylphenyl}butanoic acid, Stereoisomer 2], for which the pIC50 was 7.62.

Turning to `Cc1c(NC(=O)C(c2ccc(-c3cncc(Cl)c3)c(F)c2)C2CCC2)cccc1C(C)CC(=O)O` (single isomer, unassigned; stereoisomer 2) [Example 151, 3-[3-({[4-(5-Chloropyridin-3-yl)-3-fluorophenyl](cyclobutyl)acetyl}amino)-2-methylphenyl]butanoic acid, Stereoisomer 2], the pIC50 is 7.33.

In the case of `Cc1c(CC(C)C(=O)O)cccc1NC(=O)C(c1ccc(-c2cncc(C(F)(F)F)c2)cc1)C1CCCC1` (single isomer, unassigned; stereoisomer 3) [Example 71, 3-{3-[(Cyclopentyl{4-[5-(trifluoromethyl)pyridin-3-yl]phenyl}acetyl)amino]-2-methylphenyl}-2-methylpropanoic acid, Stereoisomer 3], the negative logarithm of the IC50 (pIC50) is 4.80.

For the molecule `Cc1c(NC(=O)C(c2ccc(-c3cncc(C(F)(F)F)c3)c(F)c2)C2CCCC2)cccc1C(C)CC(=O)O` (single isomer, unassigned; stereoisomer 3) [Example 118, 3-{3-[(Cyclopentyl{3-fluoro-4-[5-(trifluoromethyl)pyridin-3-yl]phenyl}acetyl)amino]-2-methylphenyl}butanoic acid, Stereoisomer 3], the negative-log IC50 (pIC50) is 6.42.

With `Cc1ncc(-c2ccc(C(C(=O)Nc3cccc(C(C)CC(=O)O)c3C)C3CCCC3)cc2F)cc1Cl` (single isomer, unassigned; stereoisomer 3) [Example 123, 3-[3-({[4-(5-Chloro-6-methylpyridin-3-yl)-3-fluorophenyl](cyclopentyl)acetyl}amino)-2-methylphenyl]butanoic acid, Stereoisomer 3], the pIC50 was 6.19.

In the case of `Cc1c(NC(=O)C(c2ccc(-c3cncc(Cl)c3)c(F)c2)C2CCCC2)cccc1C(C)CC(=O)O` (single isomer, unassigned; stereoisomer 3) [Example 128, 3-[3-({[4-(5-Chloropyridin-3-yl)-3-fluorophenyl](cyclopentyl)acetyl}amino)-2-methylphenyl]butanoic acid, Stereoisomer 3], the negative logarithm of the IC50 (pIC50) is 5.76.

On to `Cc1c(NC(=O)C(c2ccc(-c3cncc(Cl)c3)cc2)C2CCC2)cccc1C(C)CC(=O)O` (single isomer, unassigned; stereoisomer 3) [Example 138], for which the negative-log IC50 (pIC50) is 5.69.

Consider `Cc1c(NC(=O)C(c2ccc(-c3cncc(Cl)c3)c(F)c2)C2CCC2)cccc1C(C)CC(=O)O` (single isomer, unassigned; stereoisomer 3) [Example 152, 3-[3-({[4-(5-Chloropyridin-3-yl)-3-fluorophenyl](cyclobutyl)acetyl}amino)-2-methylphenyl]butanoic acid, Stereoisomer 3], for which the negative logarithm of the IC50 (pIC50) is 6.04.

For the molecule `Cc1c(CC(C)C(=O)O)cccc1NC(=O)C(c1ccc(-c2cncc(C(F)(F)F)c2)cc1)C1CCCC1` (single isomer, unassigned; stereoisomer 4) [Example 72, 3-{3-[(Cyclopentyl{4-[5-(trifluoromethyl)pyridin-3-yl]phenyl}acetyl)amino]-2-methylphenyl}-2-methylpropanoic acid, Stereoisomer 4], the pIC50 is 7.15.

In the case of `CCC(CC(=O)O)c1cccc(NC(=O)C(c2ccc(-c3cncc(F)c3)cc2)C2CCCC2)c1C` (single isomer, unassigned; stereoisomer 4) [Example 106, 3-[3-({[4-(5-Fluoropyridin-3-yl)phenyl](cyclopentyl)acetyl}amino)-2-methylphenyl]pentanoic acid, Stereoisomer 4], the negative logarithm of the IC50 (pIC50) was 6.81.

`Cc1c(NC(=O)C(c2ccc(-c3cncc(C(F)(F)F)c3)c(F)c2)C2CCCC2)cccc1C(C)CC(=O)O` (single isomer, unassigned; stereoisomer 4) [Example 119, 3-{3-[(Cyclopentyl{3-fluoro-4-[5-(trifluoromethyl)pyridin-3-yl]phenyl}acetyl)amino]-2-methylphenyl}butanoic acid, Stereoisomer 4]: the pIC50 is 5.97.

With `Cc1ncc(-c2ccc(C(C(=O)Nc3cccc(C(C)CC(=O)O)c3C)C3CCCC3)cc2F)cc1Cl` (single isomer, unassigned; stereoisomer 4) [Example 124, 3-[3-({[4-(5-Chloro-6-methylpyridin-3-yl)-3-fluorophenyl](cyclopentyl)acetyl}amino)-2-methylphenyl]butanoic acid, Stereoisomer 4], the pIC50 is 8.30.
